Values quoted from earlier work in patent US20170348285A1, “TREATMENT OF DRY EYE DISEASE WITH PARASYMPATHETIC & ANTI-SYMPATHETIC AGENTS” (priority 2016, published 2017).

Experiments:
[1] = topical formulation
[2] = systemic administration
[3] = topical 0.05%, treatment for two months

SMILES	floppy iris syndrome (during eye surgery)	retrograde ejaculation (in vivo)	spasms of accommodation [1]	efficacy as treatment of dry eye disease [2]	change in pupil size [3]	tear production [3]
CCOc1ccccc1OCCN[C@H](C)Cc1ccc(OC)c(S(N)(=O)=O)c1 [tamsulosin]	can cause the floppy iris syndrome	can cause retrograde ejaculation	–	–	–	–
CC[C@@H]1C(=O)OC[C@@H]1Cc1cncn1C [pilocarpine]	–	–	cause spasms of accommodation	effective systemic treatment of dry eye disease	without any change in pupil size	stimulate tear production
